# In patent US12268673B2, “Anhydrous compositions of mTOR inhibitors and methods of use” (PALVELLA THERAPEUTICS, INC., priority 2017, dated 2025):
# Entries after “also recorded” stand apart in the source; their conditions may differ.
# Assay: Ex vivo skin permeation experiment
# Assay type: in vitro ADME
# Conditions: human donor skin
# Procedure: Human donor skin was placed between upper and lower compartments. The lower compartment was filled with receiver fluid. Various rapamycin compositions were applied on the surface of the skin facing the upper compartment (11 formulations (i.e., O3, NA21, NA22, NA21, NA17, TD201, NA19, NA25, AG14, NA26 and NA24), n=6 replicates, dosage 10 mg/cm^2) and left for 24 hrs. A positive displacement pipette was used to apply the formulation (˜10 mg/cm2) to the plunger of a 1 mL syringe. The formulation (10+/−0.5 mg) was applied to the skin surface and spread over the diffusion area using the plunger. Prior to and after the application the weight of the plunger was recorded, from which the dose per cell was calculated.
# Following the time period, the excess rapamycin compositions were wiped from the skin surface and the skin layers were separated into stratum corneum, epidermis, and dermis. The Stratum corneum was removed from the human skin using a tape stripping procedure. The epidermis was separated from the dermis by dry heating at 60° C. for 2 min. Rapamycin was extracted from each layer by 90:10 v/v ethanol: water solvent mixture, and quantified. The receiver fluid in the lower compartment was also analyzed for the presence of rapamycin.
smiles,measurement,setting,value
CO[C@H]1C[C@@H]2CC[C@@H](C)[C@@](O)(O2)C(=O)C(=O)N2CCCC[C@H]2C(=O)O[C@H]([C@H](C)C[C@@H]2CC[C@@H](O)[C@H](OC)C2)CC(=O)[C@H](C)/C=C(\C)[C@@H](O)[C@@H](OC)C(=O)[C@H](C)C[C@H](C)/C=C/C=C/C=C/1C [rapamycin],"distribution of rapamycin over skin surface, stratum corneum, epidermis and dermis","10 mg/cm^2, 24 hrs",greatest amount of rapamycin was found on the surface of the skin; also recorded: more of the drug residing in the epidermis than either the stratum corneum or dermal layer; also recorded: increase in the amount of rapamycin quantified in both the epidermis and dermis
same,rapamycin in the receiver fluid,"10 mg/cm^2, any time point across the experimental period (24 hrs)",not detected
